In test [1] the test system is pyruvate kinase. Put plainly: ATP inhibition of pyruvate kinase in cell homogenates (compound optical assay, NADH at 340 mµ). It counts as biochemical. The text has this:
(§1) In more detail, the theoretical basis of this new method is as follows. -The step-wise degradation of glucose to pyruvic acid, according to the well-known Embden-Myerhof pathway, includes the reaction: [drawing 3] wherein ADP and ATP are, respectively, adenosine diphosphate and adenosine triphosphate. In healthy cells this reaction is suppressed by ATP inhibition of the enzyme pyruvate kinase. I have discovered, as previously noted, that in cancerous cells the reaction proceeds in greater or less degree, correlative to the degree of malignancy, in proportion to the extent to which ATP fails to inhibit pyruvate kinase activity. A preferred assay, therefore, involves assessment of the progress of the foregoing reaction in the presence of various levels of ATP calculated to reveal the extent, if any, by which sample-derived pyruvate kinase activity is inhibited by ATP. The extent of such inhibition can be characterised on a percentage scale relative to the foregoing reaction, taking 0% as no inhibition, 100% as total inhibition, and "maximum percent inhibition of pyruvate kinase activity" as that point on the scale beyond which addition of further ATP essentially fails to affect further the progress of the reaction.
(§2) An especially preferred method of following the reaction spectrophotometrically involves compound optical assay, in which the influence of the reaction under study on a secondary reaction with an observable end product is followed. See Felu, FEBS Letters 50, 334 (1975) and Bucher, T. et al., in : Methods in Enzymology, Vol. I (S.P. Colowick and N.O. Kaplan, eds.) Academic Press, N.Y. p. 435. Thus, in the compound reaction: [drawing 4] pyruvate kinase activity can be monitored by observing the rate of disappearance of the band (at 340 m µ) of the hydrogen donor NADH (nicotinamide adenine dinucleotide, reduced form). Successive repetitions of the assay with differing amounts of added ATP establish the point beyond which ATP addition fails to influence the rate of disappearance of the hydrogen donor.
Samples for assay may be obtained as whole tissue (e.g., of volume 1-10 mm^3) in the case of suspected tumours, by intraoperatorybiopsy or needle biopsy. In the case of suspected blood malignancies, the collection of white blood cells by differential centrifugation is sufficient. Samples are preserved on ice pending the preparation of homogenates suitable for assay. Homogenisation frees cell-contained pyruvate kinase for assay and involves cell disruption by conventional techniques which avoid, to a useful degree, the destruction of nuclei, mitochondria and other cell particulates. Typically, the sample may be placed in a hand homogeniser which is supplied with the assay kit, in buffered isotonic solution, and homogenised with several strokes of a pestle. From, e.g., 0.1 to 1 ml of buffered solution, depending on the size of the sample, is preferably employed. As one of many appropriate buffers may be mentioned a solution comprising 50 mM Tris-HC1, pH 7.0, 0.1 mM EDTA and 0.5 mM dithioerythritol. In the preferred embodiment of the invention the homogenate is next centrifuged, for example at about 5,000-10,000 rpm in a conical centrifuge tube for 10 minutes, and the supernatant is dialysed against water (e.g., for 2 hours at about 2-4°C.). The contents of the dialysis bag are then transferred to a tube immersed in ice. In the case of large samples, the centrifugation and dialysis steps may be omitted, as will be appreciated by the art-skilled. Preferably, however, a dialysis bag is supplied with the kit. As used herein, the term "homogenate" refers to a free enzyme-containing product of homogenisation, whether or not accompanied by other cellular debris. […]

The test system of test [2] is pyruvate kinase. The test is described as above. It counts as biochemical, Mouse.
Excerpt: as §1, §2
Samples for assay may be obtained as whole tissue (e.g., of volume 1-10 mm^3) in the case of suspected tumours, by intraoperatorybiopsy or needle biopsy. In the case of suspected blood malignancies, the collection of white blood cells by differential centrifugation is sufficient. Samples are preserved on ice pending the preparation of homogenates suitable for assay. Homogenisation frees cell-contained pyruvate kinase for assay and involves cell disruption by conventional techniques which avoid, to a useful degree, the destruction of nuclei, mitochondria and other cell particulates. Typically, the sample may be placed in a hand homogeniser which is supplied with the assay kit, in buffered isotonic solution, and homogenised with several strokes of a pestle. […]

Consider `Nc1ncnc2c1ncn2[C@@H]1O[C@H](COP(=O)(O)OP(=O)(O)OP(=O)(O)O)[C@@H](O)[C@H]1O` [ATP, adenosine triphosphate], for which the “MAXIMUM % INHIBITION OF PYRUVATE KINASE BY ATP” value is on record as 32% in the test on pyruvate kinase [1] (Acute lympho-blastic leukaemia, Human, Moderately malign); 40% in the test on pyruvate kinase [1] (Cerebral ependonoma, Human, Benign); 15% in the test on pyruvate kinase [1] (Glioma, Human, Malign); 17% in the test on pyruvate kinase [1] (Mammary carcinoma, Human, Malign); 49% with pyruvate kinase [1] (Mammary fibro-adenoma, Rat, Very benign); 4% in the test with pyruvate kinase [1] (Multiform glioma, Human, Very malign). Further, the “MAXIMUM % INHIBITION OF PYRUVATE KINASE BY ATP” value with pyruvate kinase [1] (Normal liver, Human, No cell growth) was 99%; in the test with pyruvate kinase [1] (Normal tissue, Rat, No cell growth), 99%; in the test on pyruvate kinase [1] (Ovarian carcinoma, Human, Malign), 10%; in the test with pyruvate kinase [1] (Walter Carcino-sarcoma, Rat, Malign) it was 22%; in the test on pyruvate kinase [2] (Erhlich ascites (Paris strain), Mouse, Very high growth rate), 4%; in the test on pyruvate kinase [2] (Erhlich ascites tumour (Rome Strain), Mouse, Slow growth rate), 39%. Also, the “MAXIMUM % INHIBITION OF PYRUVATE KINASE BY ATP” value was 16% with pyruvate kinase [2] (Leukaemia 1210, Mouse, Very malign) and 25% with pyruvate kinase [2] (Leukaemia P-P388, Mouse, Malign).

The record behind these values is EP0002933A1, “Method for assessing cancerous malignancy or benignity and diagnostic pack for use therein” (Gosalvez, Mario Gosalvez, priority 1977, dated 1979).
